Source: patent publication US12187770B2, “Cyclic peptide from novel bone morphogenetic protein 2, preparation method therefor and application thereof” (Hangzhou Huibo Science and Technology Co., Ltd, priority 2019, dated 2025)
Bridge positions count the residues as written; N and C are the ends. Peptide text beside a SMILES is read from it.

Assay: Acute toxicity in animals
Settings: in vivo

CC[C@H](C)[C@@H]1NC(=O)[C@H](C)NC(=O)[C@H](CO)NC(=O)[C@H](CC(C)C)NC(=O)[C@H](CCC(=O)O)NC(=O)[C@H]([C@@H](C)O)NC(=O)[C@@H]2CCCN2C(=O)[C@H](C(C)C)NC(=O)[C@H](CO)NC(=O)[C@H](CO)NC(=O)[C@H](C)NC(=O)[C@H](CCCCN)NC(=O)[C@@H]2CCCN2C(=O)[C@H]([C@@H](C)CC)NC(=O)[C@H](CCCCN)NC(=O)[C@@H](N)CSSC[C@@H](C(=O)O)NC(=O)[C@H](C)NC(=O)[C@H](C(C)C)NC(=O)[C@H]([C@@H](C)CC)NC(=O)[C@H](Cc2c[nH]c3ccccc23)NC(=O)[C@H](CC(=O)O)NC(=O)CNC(=O)CNC(=O)[C@@H]2CCCN2C(=O)CNC(=O)[C@H](CC(C)C)NC(=O)[C@H](Cc2ccc(O)cc2)NC(=O)[C@H](CC(C)C)NC(=O)[C@H](CCSC)NC(=O)[C@H](CO)NC1=O [M-C-BMP2] (H-CKIPKASSVPTELSAISMLYLGPGGDWIVAC-OH; disulfide 1-31)
acute toxicity in animals: has not been found to have acute toxicity in animals
